Patent publication US20240148747A1, “SMALL MOLECULE ACTIVATORS OF YAP TRANSCRIPTIONAL ACTIVITY FOR REGENERATIVE ORGAN REPAIR” (THE SCRIPPS RESEARCH INSTITUTE, priority 2021, published 2024)

Columns and labels:
[1] = Cytotoxicity in the TEAD-LUC activation assay; conditions: human
YAP = experiment: TEAD-LUC activation assay (293A-TEAD-LUC reporter); format: cell-based; conditions: Homo sapiens, Table 3; read-out: TEAD-LUC activation assay EC50
Excerpt: More specifically, we used a 293A cell line harboring a stably integrated cassette containing 8 copies of the TEAD binding element upstream of luciferase (8xGTII-LUC). These cells retain responsiveness to contact inhibition-induced decreases in YAP transcriptional output.^6 The TEAD-responsive reporter assay (called 293A-TEAD-LUC throughout) was adapted to 1536-well format and then used to screen a library of ˜738k compounds for YAP-inducing activity.
Additional compounds of the present disclosure were subjected to the assay described above.

| EC50 (YAP) [µM] | SMILES | IC50 [1] [µM] |
| --- | --- | --- |
| 3.58 | CC(C)(C)OC(=O)NCCNC(=O)c1cc(-c2ccccc2)on1 [Compound 59] | > 20 |
| > 20 | CN(CC(F)F)C(=O)c1cc(-c2ccccc2)on1 [Compound 60] | 12 |
| 2.36 | CSCCNC(=O)c1cc(-c2ccccc2)on1 [Compound 61] | > 20 |
| > 20 | C[C@@H](NC(=O)c1cc(-c2ccccc2)on1)c1ccccc1 [Compound 62] | > 20 |
| 7.58 | O=C(NCC(F)(F)F)c1cc(-c2ccccc2)on1 [Compound 63] | > 20 |
| > 20 | CC(CNC(=O)c1cc(-c2ccccc2)on1)c1ccc(Cl)cc1 (stereo not shown) [Compound 64] | > 20 |
| > 20 | O=C(NCCc1ccc(Cl)c(Cl)c1)c1cc(-c2ccccc2)on1 [Compound 65] | > 20 |
| > 20 | CN(CCO)C(=O)c1cc(-c2ccccc2)on1 [Compound 66] | > 20 |
| > 20 | C[C@H](NC(=O)c1cc(-c2ccccc2)on1)c1ccc(Cl)cc1 [Compound 67] | > 20 |
| > 20 | O=C(NCCc1ccc(F)c(Cl)c1)c1cc(-c2ccccc2)on1 [Compound 68] | > 20 |
| > 20 | O=C(NCCc1cccc(C(F)(F)F)c1)c1cc(-c2ccccc2)on1 [Compound 69] | > 20 |
| 5 | O=C(NCCCn1ccnn1)c1cc(-c2ccc(F)cc2)on1 [Compound 70] | > 20 |

The next lines start with the compound.

| SMILES | EC50 (YAP) [µM] | IC50 [1] [µM] |
| --- | --- | --- |
| CS(=O)(=O)c1ccc(-c2cc(C(=O)NCCCc3nccs3)no2)cc1 [Compound 39] | > 20 | > 20 |
| O=C(NCCCc1nccs1)c1cc(-c2ccc(-c3ccccc3)cc2)on1 [Compound 40] | > 20 | > 20 |
| COC(=O)N1CCN(CCCNC(=O)c2cc(-c3ccccc3)on2)CC1 [Compound 41] | 3.38 | > 20 |
| NS(=O)(=O)c1ccc(-c2cc(C(=O)NCCCc3nccs3)no2)cc1 [Compound 42] | > 20 | > 20 |
| CC(C)(CNC(=O)c1cc(-c2ccccc2)on1)C(F)(F)F [Compound 43] | > 20 | > 20 |
| CC(C)(NC(=O)c1cc(-c2ccccc2)on1)C(F)(F)F [Compound 44] | > 20 | > 20 |
| O=C(NC1CC(OC(F)F)C1)c1cc(-c2ccccc2)on1 (stereo not shown) [Compound 45] | 3.17 | > 20 |
| CC(F)(F)C(C)(C)NC(=O)c1cc(-c2ccccc2)on1 [Compound 46] | > 20 | > 20 |
| O=C(NCCc1ccc(Cl)c(F)c1)c1cc(-c2ccccc2)on1 [Compound 47] | > 20 | 15 |
| Cc1ccc(CCNC(=O)c2cc(-c3ccccc3)on2)cc1 [Compound 48] | > 20 | > 20 |
| O=C(NCCc1c[nH]c2ccccc12)c1cc(-c2ccccc2)on1 [Compound 49] | > 20 | > 20 |
| C[C@H](NC(=O)c1cc(-c2ccccc2)on1)c1ccccc1 [Compound 50] | > 20 | > 20 |
| CC(C)(C)SCCNC(=O)c1cc(-c2ccccc2)on1 [Compound 51] | > 20 | > 20 |
| CN(CCC#N)C(=O)c1cc(-c2ccccc2)on1 [Compound 52] | > 20 | > 20 |
| COc1cccc(CCNC(=O)c2cc(-c3ccccc3)on2)c1 [Compound 53] | > 20 | > 20 |
| O=C(NCc1cccs1)c1cc(-c2ccccc2)on1 [Compound 54] | > 20 | > 20 |
| O=C(NCCc1cccc(F)c1)c1cc(-c2ccccc2)on1 [Compound 55] | > 20 | > 20 |
| O=C(NC12CC(C(F)(F)F)(C1)C2)c1cc(-c2ccccc2)on1 [Compound 56] | > 20 | > 20 |
| O=C(NC12CC(F)(C1)C2)c1cc(-c2ccccc2)on1 [Compound 57] | > 20 | > 20 |
| CN(C)CCN(C)C(=O)c1cc(-c2ccccc2)on1 [Compound 58] | > 20 | > 20 |
